Experimental data from patent publication EP4803087A1, “METHOD FOR PRODUCING LIPOSOME COMPOSITION, AND LIPOSOME COMPOSITION” (FUJIFILM Corporation, priority 2023, dated 2025).
Structures can show the parent of a compound that is named as a salt.

Key:
[1] = Measurement of saturated solubility of gemcitabine hydrochloride (HPLC, 272 nm); format: physicochemical; conditions: 55 °C, aqueous buffer, thermodynamic from solid, phosphate buffer and water
Method: 0.95 g of disodium hydrogen phosphate dihydrate, 0.15 g of sodium dihydrogen phosphate dihydrate, and 51.1 g of water were put into a 100 mL plastic container and dissolved to produce a buffer containing no sodium chloride.
3.4 g of gemcitabine hydrochloride was put into 5.8 g of this buffer and 8.1 g of water, and the mixture was stirred at 55°C for 2 hours. 5 mL of this supernatant was collected, and the filtrate obtained by filtration was used as a sample solution.
0.95 g of disodium hydrogen phosphate dihydrate, 0.15 g of sodium dihydrogen phosphate dihydrate, 5.4 g of sodium chloride, and 67.7 g of water were put into a 100 mL plastic container and dissolved to produce a buffer containing sodium chloride.
3.4 g of gemcitabine hydrochloride was put into 7.4 g of this buffer and 8.1 g of water, and the mixture was stirred at 55°C for 2 hours. 5 mL of this supernatant was collected, and the filtrate obtained by filtration was used as a sample solution.
This sample solution was quantified by HPLC at a detection wavelength of 272 nm, and the saturated solubility of 90 mg/mL in the presence of sodium chloride was obtained.

[2] = Dissolution of gemcitabine hydrochloride in the loading tank at production scale (visual confirmation); format: physicochemical; parameters: time after which complete dissolution could not be confirmed: dose or concentration left out as unconfirmed; conditions: jacket 56°C
Method: In order to prevent the powder of gemcitabine hydrochloride having high pharmacological activity from being exposed to the operator, the following work was performed in an isolator that could completely isolate the work from the outside. […] In this case, the extension tube was closed by a pinch valve. 1,452 g of water for injection at room temperature was put into the plastic bag to wash the burette, and gemcitabine hydrochloride was dispersed. A tube extended from a sealed tank (hereinafter, a loading tank) made of SUS316L with a temperature control jacket installed outside the isolator and the plastic bag was connected, and the gemcitabine hydrochloride aqueous dispersion liquid was put into the loading tank. A solution consisting of 17.0 g of disodium hydrogen phosphate dihydrate, 2.7 g of sodium dihydrogen phosphate dihydrate, and 1,106.6 g of water for injection was put into the loading tank from the plastic bag to wash out the gemcitabine hydrochloride remaining in the plastic bag, the extension tube, and the like. By cutting the extension tube while pinching and crimping the extension tube, the gemcitabine hydrochloride of the highly pharmaceutically active substance could be safely put into the loading tank without scattering from the isolator or the loading tank. […]

SMILES: Nc1ccn([C@@H]2O[C@H](CO)[C@@H](O)C2(F)F)c(=O)n1 [gemcitabine hydrochloride, Gemcitabine hydrochloride]
- solubility at 2 h ([1]; in the absence of sodium chloride, stirred at 55°C for 2 hours (imitating Example 1)): 156 mg/mL
- solubility at 2 h ([1]; in the presence of sodium chloride, stirred at 55°C for 2 hours (imitating Comparative Example 1)): 90 mg/mL
- time after which complete dissolution could not be confirmed ([2]; Comparative Example 1: sodium chloride present, 200 rpm, downward flow, sodium hydroxide added): > 1 h
- time after the temperature rise until gemcitabine hydrochloride was completely dissolved ([2]; Example 1: no sodium chloride, 305 g scale, liquid 54°C, 400 rpm, upward flow): about 15 minutes
